Six molecules from US9493472B2, “Substituted benzoxazoles” (BAYER PHARMA AKTIENGESELLSCHAFT, priority 2013, dated 2016) can be followed below.

The test system of one assay is New Zealand rabbits. The assay can be described thus: Rabbit venous reperfusion and bleeding model (combi model rabbit). It is filed as in vivo. The settings on record: for Increase in reperfusion (blood flow/time area): on top of tissue plasminogen activator; for Significance of increase in reperfusion: p > 0.05. How it is done:
Male New Zealand rabbits having a weight of 2.8-3.4 kg are anaesthetized using an intramuscular ketamine/Rompun bole injection. The animal is then shaved at the places needed for the surgery. A continuous infusion of anaesthetic (ketamine/Rompun) is administered via the left auricular vein using an indwelling catheter. Left and right femoral vein and right femoral artery are catheterized with a polyethylene tube (PESO). The jugular vein is then carefully exposed such that the vessel is stressed and damaged as little as possible and no more fat is present at the vessel. Using a suitable apparatus for measuring flow (Powerlab, Transonic TS420 incl. flow probe head), the flow in the jugular vein is recorded (Lab Chart Software). Prior to the start of the experiment, twice 1.4 ml of citrated blood are removed from the rabbit via the femoral artery, and the basal bleeding time at the rim of the ear is determined. Once there has been a constant flow from the jugular vein for 10 min (complete regeneration of the vessel after preparation), a 2 cm section of the vein is pinched off using small vessel clamps. In a Petri dish, the citrated blood removed earlier (300 μl) is mixed with calcium chloride (0.25 M, 90 μl) and thrombin (25 U/ml, 60 μl). 180 μl of the blood/calcium chloride/thrombin mixture are quickly drawn into a 1 ml syringe and, via a 27G cannula, injected into the pinched-off segment of the vessel. The injection site is pinched off with a pair of tweezers for one minute so that no blood can escape. Two minutes after injection of the thrombus, the test substance is administered as bole and infusion via the left femoral vein catheter. 14 minutes after the thrombus injection, tissue plasminogen activator is administered as bole and infusion (Actilyse®, 20 μg/kg bole & 150 μg/kg/h infusion) at the right femoral vein. 15 minutes after thrombus injection, the stasis is opened and the flow probe head is attached. Blood flow in the vessel is recorded for 120 minutes, and the vessel is kept moist with warm 0.9% aqueous sodium chloride solution during this time. After 105 minutes of reperfusion, the ear bleeding time is determined again. At the end of the experiment, after 120 minutes of reperfusion, 1.4 ml of citrated blood are removed, the animal is sacrificed painlessly by a bole injection of 1.5 ml of T61 and the weight of the thrombus in the jugular vein is determined. The blood removed before and after the experiment is used to obtain plasma and to determine the ex vivo coagulation time.
The area obtainable with tissue plasminogen activator alone is subtracted from the area achieved using the respective substance or dosage. The resulting area is a measure of the improvement of reperfusion by the test substance (Table 4).

Assay [1] relates to plasma (prothrombin time). The assay can be described thus: Anticoagulatory activity: prothrombin time (PT) in plasma. As to conditions: 37° C., 3 minutes incubation, plasma species not given, in some cases means, read-out: IC50 [μM] (concentration of test substance which effects a doubling of the prothrombin time). How it is done: The anticoagulatory activity of the test substances is determined in vitro in human plasma, rabbit plasma and rat plasma. To this end, blood is drawn off in a mixing ratio of sodium citrate/blood of 1:9 using a 0.11 molar sodium citrate solution as receiver. Immediately after the blood has been drawn off, it is mixed thoroughly and centrifuged at about 4000 g for 15 minutes. The supernatant is pipetted off.
The prothrombin time (PT, synonyms: thromboplastin time, quick test) is determined in the presence of varying concentrations of test substance or the corresponding solvent using a commercial test kit (Neoplastin® from Boehringer Mannheim or Hemoliance® RecombiPlastin from Instrumentation Laboratory). The test compounds are incubated with the plasma at 37° C. for 3 minutes. Coagulation is then started by addition of thromboplastin, and the time when coagulation occurs is determined. The concentration of test substance which effects a doubling of the prothrombin time is determined Representative activity data from this test are given in Table 3 below (in some cases as means of individual determinations): […]

For assay [2], the target named is T1, thrombin (Homo sapiens (Human), UniProt P00734). The assay can be described thus: Thrombin-inhibitory activity in plasma samples (ecarin-activated). The assay is classed as biochemical. The settings on record: citrate plasma, prothrombinase activated by ecarin, fluorogenic thrombin substrate; in some cases means; read-out: IC50 [nM] thrombin inhibition in plasma samples. How it is done:
To determine the inhibition of thrombin in plasma samples, plasma […] is activated by ecarin. Thrombin activity and/or its inhibition by potential inhibitors is/are then measured fluorenscently by addition of a substrate.
The substances to be tested are dissolved in various concentrations in dimethyl sulphoxide and diluted with water. In white 96-well flat-bottomed plates, 20 μl of substance dilution are mixed with 20 μl of ecarin solution (ecarin reagent, from Sigma E-0504, final concentration 20 mU per reaction) in Ca buffer (200 mM Hepes+560 mM sodium chloride+10 mM calcium chloride+0.4% PEG) or with 20 μl of Ca buffer (as unstimulated control). Furthermore, 20 μl of fluorogenic thrombin substrate (from Bachem I-1120, final concentration 50 μmol/l) and 20 μl of citrate plasma (from Octapharma) are added, and the mixture is homogenized well. The plate is measured in a SpectraFluorplus Reader using a 360 nm excitation filter and a 465 nm emission filter every minute over 20 minutes.

Assay [3] has as its target T1, thrombin. Put plainly: Measurement of the thrombin inhibition in buffer. The assay is classed as biochemical. As to conditions: human thrombin 0.06 nmol/l, Tris buffer pH 7.4, 22° C.; substrate Boc-Asp(OBzl)-Pro-Arg-AMC; in some cases means. How it is done: To determine the thrombin inhibition of the substances listed above, a biochemical test system is constructed in which the conversion of a thrombin substrate is used for determining the enzymatic activity of human thrombin. Here, thrombin cleaves aminomethylcoumarin, which is measured fluorescently, from the peptic substrate. The determinations are carried out in microtitre plates.
Substances to be tested are dissolved in various concentrations in dimethyl sulphoxide and incubated for 15 min with human thrombin (0.06 nmol/l dissolved in 50 mmol/l of Tris buffer [C,C,C-tris(hydroxymethyl)aminomethane], 100 mmol/l of sodium chloride, 0.1% BSA [bovine serum albumin], pH 7.4) at 22° C. The substrate (5 μmol/l Boc-Asp(OBzl)-Pro-Arg-AMC from Bachem) is then added. After 30 min of incubation, the sample is excited at a wavelength of 360 nm and the emission is measured at 460 nm. The measured emissions of the test batches with test substance are compared to the control batches without test substance (only dimethyl sulphoxide instead of test substance in dimethyl sulphoxide) and the IC50 values are calculated from the concentration/activity relationships.

The mark [4] stands for this setting: bole 0.33 mg/kg, continuous infusion 0.43 mg/kg/h.
Where [5] appears, read: bole 0.08 mg/kg, continuous infusion 0.09 mg/kg/h.

With `COc1cc(C(=O)N2CC(C)OC[C@@H]2CCO)cc2nc(NC(CF)c3cccc(Cl)c3)oc12` (single isomer, unassigned) [Example 15], in the assay with New Zealand rabbits (setting [4]), the “Increase in reperfusion (blood flow/time area)” value is 12.2% and the “Significance of increase in reperfusion” value was “insignificant effect”. The IC50 in assay [1] was 1.1 µM.
Take `COc1cc(C(=O)N2CC3(CC3)NC(=O)C2C)cc2nc(NC(CF)c3cccc(Cl)c3)oc12` (single isomer, unassigned) [Example 33, 7-[(2-{[1-(3-Chlorophenyl)-2-fluoroethyl]amino}-7-methoxy-1,3-benzoxazol-5-yl)carbonyl]-6-methyl-4,7-diazaspiro[2.5]octan-5-one]: the IC50 at thrombin [2] was 8.4 nM; at thrombin [3], 0.38 nM; in assay [1], 0.8 µM.
`COc1cc(C(=O)N2CC(C)(CC(C)O)OC[C@H]2C)cc2nc(NC(CF)c3cccc(Cl)c3)oc12` (stereo partly drawn) [Example 12, (2-{[1-(3-Chlorophenyl)-2-fluoroethyl]amino}-7-methoxy-1,3-benzoxazol-5-yl)[(5R)-2-(2-hydroxypropyl)-2,5-dimethylmorpholin-4-yl]methanone]: the IC50 at thrombin [2] is 14.7 nM; against thrombin [3] it was 0.1 nM; in assay [1], 1.5 µM.
With `COc1cc(C(=O)N2CC(C)OC[C@]23C[C@H](O)C3)cc2nc(NC(CF)c3cccc(Cl)c3)oc12` (stereo partly drawn) [Example 21, (2-{[1-(3-Chlorophenyl)-2-fluoroethyl]amino}-7-methoxy-1,3-benzoxazol-5-yl)(cis-2-hydroxy-7-methyl-8-oxa-5-azaspiro[3.5]non-5-yl)methanone], the results for the IC50 (on thrombin [2]; against thrombin [3]; in assay [1]) were 6.2 nM, 1.4 nM and 1.3 µM, respectively.
The corresponding values for `COc1cc(C(=O)N2CC(C)(C)OC[C@H]2CCO)cc2nc(NC(CF)c3cccc(Cl)c3)oc12` (stereo partly drawn) [Example 25, (2-{[1-(3-Chlorophenyl)-2-fluoroethyl]amino}-7-methoxy-0,2-benzoxazol-5-yl)[(5R)-5-(2-hydroxyethyl)-2,2-dimethylmorpholin-4-yl]methanone] are 4.7 nM, 4.3 nM and 1.1 µM.
Regarding `O=C(NC[C@H]1CN(c2ccc(N3CCOCC3=O)cc2)C(=O)O1)c1ccc(Cl)s1` [rivaroxaban, 5-chloro-N-({(5S)-2-oxo-3-[4-(3-oxo-4-morpholinyl)-phenyl]-1,3-oxazolidin-5-yl}methyl)-2-thiophenecarboxamide, reference compound], in the assay on New Zealand rabbits (setting [5]), the “Increase in reperfusion (blood flow/time area)” value is on record as 13.0% and the “Significance of increase in reperfusion” value is listed as “insignificant effect”.
